Laboratory results taken from patent publication US20260125357A1, “LACTATE ENHANCING COMPOUNDS AND USES THEREOF” (GLIAPHARM SA, priority 2022, published 2026).

Tests used:
[1] = tested on: human iPSC-derived astrocytes; assay: Release of lactate from human iPSC-derived astrocytes; assay type: cell-based; details: treated for 1.5 hours
Description: Secretion of L-lactate was measured in the extracellular medium of 96-well plated astrocytes after 90 min stimulation (at 37° C., in 5% CO2/95% air conditions) with Vehicle (DMSO), the compounds of the invention (100 nM to 100 μM) or positive control. […] Stimulation medium was composed of D5030 medium complemented with 5 mM D-glucose and 44 mM sodium bicarbonate, pH 7.2. To quantify lactate concentrations in the extracellular medium, 200 μl of a 0.2M Glycine-semicarbazide buffer (pH 10) containing 3 mM NAD and 14 U/ml LDH was added to each well of a 96-well plate containing 30 μl aliquots of extracellular medium. Samples were incubated at 37° C. for 1 h. Fluorescence intensity (340 nm excitation/450 nm emission), which represents the amount of NADH produced, was measured, and lactate concentration values were determined relative to a standard curve of L-lactate concentrations.
Human iPSC-derived astrocytes were purchased from NCardia (NCyte Astrocytes) and were plated at a density of ˜10′000 cells/cm^2 in 96-well or 12-well plates, according to the manufacturer's instructions and using the recommended media. Experiments were performed at 7 days in vitro. Cells were treated for 1.5 hours with compound (2). Uptake of 2-DG and release of lactate were quantified as described previously.

[2] = tested on: mice injected with streptozotocin; assay: Novel Object Recognition in streptozotocin ICV injection model of Alzheimer's disease; assay type: in vivo, mouse; details: 1 day after training, vs Veh
Description: Craniotomies are performed on isoflurane-anesthetized mice for injections of Veh or streptozotocin in cerebral ventricles (coordinates: −0.5 mm (to bregma), lateral+/−1.0 mm (to midline), ventral −2.2 mm (to dura)) (Kelliny S. et al., Molecular Neurobiology, 2021). A solution composed of Veh (0.9% NaCl) or streptozotocin (5 mg/kg) prepared in 1 μl artificial cerebrospinal fluid solution (aCSF, 20 mM citrate buffer, pH 4.2) is injected in both cerebral ventricles using Hamilton micro syringe at a constant speed of 100-200 nl/min. After injection, skin of the skull is sutured, and mice is monitored closely and receives analgesic treatment for at least 4 days. After mice had fully recovered from surgery, memory tests including Morris Water Maze (MWM), Inhibitory Avoidance (IA) and Novel Object Recognition (NOR), as described below, are performed. […]
Novel object recognition (NOR) is a well-established protocol to evaluate recognition memory in rodent models. […] During the acquisition period, time spent exploring and number of contacts with each object are recorded. […] The time of exploration and number of contacts with each object are recorded. The activity is recorded automatically using automated tracking software (Ethovision).

[3] = tested on: old C57Bl/6J wild-type mice; assay: Morris Water Maze memory in old (16-month-old) wild-type mice; assay type: in vivo, mouse; details: 1 day after training
Description: Adult male C57Bl/6J wild-type from 3 month of age (young adults) to 16 month of age (old adults) are used (Charles River). Animals are housed in groups of 3-5 in polypropylene cages (30×40×15 cm) with wire mesh top in a temperature (22±2° C.) and humidity (55±15%) controlled environment on a 12-hour light cycle (07.00-19.00 h lights on). The samples (Vehicle or compounds of the invention) are administered per os (gavage) in a solution made of water supplemented with 0.4% hydroxypropyl methylcellulose (HPMC) Methocel 4 KM (w/v) and 0.25% Tween-20 (v/v), as previously described (Thackaberry et al., 2010, Toxicol Sci., 117(2):485-92). Memory of young adults treated with Vehicle or Old adults treated with Vehicle or compound (1) at 10 mg/kg or 30 mg/kg is tested in the Morris Water Maze, as described below. Treatment is administered at each day of training, 30 minutes before the first training session. No treatment is administered during memory retention test.
Morris Water Maze (MWM), a well-established spatial and contextual memory test, will be used. […] A number of parameters including the latency to find the platform, time spent around the platform, path efficiency, % time spent in each quadrant is recorded, using automated tracking software (Ethovision). The type of exploration (direct, random, scan of the area) is also recorded. […]

COc1cc2ccnc(Nc3ccc(S(C)(=O)=O)cc3)c2cc1OC [Compound 2, 6,7-dimethoxy-N-(4-methylsulfonylphenyl)isoquinolin-1-amine]
release of lactate [1]: increased
memory in the Novel object recognition ([2]; 10 mg/kg): significantly higher
memory in the Novel object recognition ([2]; 30 mg/kg): significantly higher
memory in the Morris Water Maze ([3]; 10 mg/kg per os): significant increase of memory
memory in the Morris Water Maze ([3]; 30 mg/kg per os): significant increase of memory
